Assay results: patent publication US11214565B2, “Compound, compositions, and methods” (Denali Therapeutics Inc., priority 2015, dated 2022)

Target: LRRK2 G2019S enzyme (Homo sapiens (Human), UniProt Q5S007, G2019S)
Assay: LRRK2 G2019S TR-FRET biochemical kinase assay (LRRKtide substrate)
Details: 5 nM LRRK2, 134 μM ATP, 60 minute reaction, 23° C.
In short: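 5 nM LRRK2 G2019S preincubated 20 min with LRRKtide and compound (3.162-fold dilution series) in Tris pH 7.5, MgCl2, EGTA, Brij-35, DTT, then reacted 60 min at 23 °C with 134 μM ATP. EDTA-stopped; pLRRKtide antibody detection, TR-FRET read at 340 nm excitation, 520/490–495 nm emission.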

LRRK2 G2019S enzyme, sequence (Q5S007 whole entry G2019S): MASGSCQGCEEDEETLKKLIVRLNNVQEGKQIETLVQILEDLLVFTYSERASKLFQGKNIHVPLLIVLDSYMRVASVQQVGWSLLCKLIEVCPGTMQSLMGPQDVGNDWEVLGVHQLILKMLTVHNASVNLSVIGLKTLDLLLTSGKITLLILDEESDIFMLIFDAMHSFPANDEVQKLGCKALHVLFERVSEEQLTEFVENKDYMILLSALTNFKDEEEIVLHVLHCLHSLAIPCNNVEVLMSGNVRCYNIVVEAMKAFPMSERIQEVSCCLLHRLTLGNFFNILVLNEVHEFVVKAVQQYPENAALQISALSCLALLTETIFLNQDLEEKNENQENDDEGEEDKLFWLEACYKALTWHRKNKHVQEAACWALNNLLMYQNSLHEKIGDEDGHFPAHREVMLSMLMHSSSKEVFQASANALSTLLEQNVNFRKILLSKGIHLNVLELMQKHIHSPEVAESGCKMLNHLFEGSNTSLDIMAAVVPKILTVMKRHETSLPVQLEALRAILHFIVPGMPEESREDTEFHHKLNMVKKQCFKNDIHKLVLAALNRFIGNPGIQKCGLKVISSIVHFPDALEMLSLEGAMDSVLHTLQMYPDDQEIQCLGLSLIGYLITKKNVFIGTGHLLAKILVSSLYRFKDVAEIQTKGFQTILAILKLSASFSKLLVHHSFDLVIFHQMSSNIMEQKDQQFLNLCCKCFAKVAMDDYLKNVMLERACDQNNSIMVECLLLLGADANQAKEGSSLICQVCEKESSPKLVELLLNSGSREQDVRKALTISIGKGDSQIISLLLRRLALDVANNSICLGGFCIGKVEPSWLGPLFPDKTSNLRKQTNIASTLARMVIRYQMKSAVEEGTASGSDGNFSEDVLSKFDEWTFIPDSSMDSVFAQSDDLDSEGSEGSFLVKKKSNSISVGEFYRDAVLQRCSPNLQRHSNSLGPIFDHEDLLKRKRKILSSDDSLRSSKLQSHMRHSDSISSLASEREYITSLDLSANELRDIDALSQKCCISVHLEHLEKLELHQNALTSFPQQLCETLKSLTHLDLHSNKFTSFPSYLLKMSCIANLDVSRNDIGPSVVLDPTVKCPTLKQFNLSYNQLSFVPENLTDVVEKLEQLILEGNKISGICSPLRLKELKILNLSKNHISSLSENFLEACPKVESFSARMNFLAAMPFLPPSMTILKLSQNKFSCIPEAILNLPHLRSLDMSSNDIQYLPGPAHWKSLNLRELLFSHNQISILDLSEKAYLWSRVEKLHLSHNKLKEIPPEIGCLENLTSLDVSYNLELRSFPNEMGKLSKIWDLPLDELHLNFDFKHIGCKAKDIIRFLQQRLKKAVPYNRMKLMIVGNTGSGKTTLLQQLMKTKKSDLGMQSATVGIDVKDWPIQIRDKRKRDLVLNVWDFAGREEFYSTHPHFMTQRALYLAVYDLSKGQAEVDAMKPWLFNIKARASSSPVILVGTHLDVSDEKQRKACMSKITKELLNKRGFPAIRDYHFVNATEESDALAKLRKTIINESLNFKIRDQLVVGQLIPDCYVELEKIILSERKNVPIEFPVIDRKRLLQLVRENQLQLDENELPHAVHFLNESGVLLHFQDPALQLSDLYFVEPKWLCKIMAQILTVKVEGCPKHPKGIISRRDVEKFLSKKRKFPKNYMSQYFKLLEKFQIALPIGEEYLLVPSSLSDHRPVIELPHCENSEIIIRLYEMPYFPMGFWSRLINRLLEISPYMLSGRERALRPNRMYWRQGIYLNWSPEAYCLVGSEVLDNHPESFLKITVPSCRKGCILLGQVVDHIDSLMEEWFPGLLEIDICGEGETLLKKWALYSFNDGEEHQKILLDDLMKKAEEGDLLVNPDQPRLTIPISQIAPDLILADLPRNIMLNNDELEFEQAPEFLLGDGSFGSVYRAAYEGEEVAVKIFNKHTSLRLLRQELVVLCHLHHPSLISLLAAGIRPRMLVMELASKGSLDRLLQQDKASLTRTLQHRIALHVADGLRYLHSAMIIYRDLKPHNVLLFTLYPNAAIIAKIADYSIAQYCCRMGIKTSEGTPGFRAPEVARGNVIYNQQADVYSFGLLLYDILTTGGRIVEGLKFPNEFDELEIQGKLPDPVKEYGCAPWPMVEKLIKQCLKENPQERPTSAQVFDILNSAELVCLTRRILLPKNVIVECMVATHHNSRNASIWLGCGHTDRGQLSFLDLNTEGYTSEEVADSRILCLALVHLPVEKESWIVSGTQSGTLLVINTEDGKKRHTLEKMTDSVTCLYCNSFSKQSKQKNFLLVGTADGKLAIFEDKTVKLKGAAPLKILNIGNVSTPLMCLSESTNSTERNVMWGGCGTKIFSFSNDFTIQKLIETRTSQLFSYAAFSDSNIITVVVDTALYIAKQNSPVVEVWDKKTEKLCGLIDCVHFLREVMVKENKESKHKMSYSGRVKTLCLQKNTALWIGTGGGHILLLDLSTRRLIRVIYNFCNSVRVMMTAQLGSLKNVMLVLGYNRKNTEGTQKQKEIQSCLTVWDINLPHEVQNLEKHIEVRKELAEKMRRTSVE

SMILES	IC50 (Table D-4) [nM]	IC50 (Table A-2) [nM]
CNc1nc(Nc2cnn([C@H]3C[C@H](n4cc(F)cn4)C3)c2C)ncc1Br [Compound D-193]	< 30	
CCNc1nc(Nc2cn(C(C)(C#N)CF)nc2C)ncc1C(F)(F)F [Compound D-203]	< 30	
CCNc1nc(Nc2cn(C(C#N)(CF)CF)nc2C)ncc1C(F)(F)F [Compound D-204]	< 30	
Cc1c(Nc2ncc(C(F)(F)F)c(C3CC3)n2)cnn1[C@@H]1CCc2cn[nH]c21 [Compounds A-84]		< 30
Cc1nn([C@@H]2CCNC2=O)cc1Nc1ncc(C(F)(F)F)c(C2CC2)n1 [Compounds A-85]		< 30
Cc1nn([C@H]2CCNC2=O)cc1Nc1ncc(C(F)(F)F)c(C2CC2)n1 [Compounds A-86]		< 30
Cc1nn([C@@H]2CCc3cn[nH]c32)cc1Nc1ncc(C(F)(F)F)c(C2CC2)n1 [Compounds A-89]		< 30
Cc1nn([C@H]2CCc3cn[nH]c32)cc1Nc1ncc(C(F)(F)F)c(C2CC2)n1 [Compounds A-90]		< 30
Cc1c(Nc2ncc(C(F)(F)F)c(C3CC3)n2)cnn1[C@H]1CCNC1=O [Compounds A-91]		30 to 60
Cc1c(Nc2ncc(C(F)(F)F)c(C3CC3)n2)cnn1[C@H]1CCc2cn[nH]c21 [Compounds A-92]		< 30
Cc1nn([C@@]2(C)CCNC2=O)cc1Nc1ncc(C(F)(F)F)c(C2CC2)n1 [Compounds A-94]		< 30
Cc1nn([C@]2(C)CCNC2=O)cc1Nc1ncc(C(F)(F)F)c(C2CC2)n1 [Compounds A-95]		< 30
Cc1nn([C@@](C)(C(N)=O)C(F)F)cc1Nc1ncc(C(F)(F)F)c(C2CC2)n1 [Compounds A-96]		< 30
Cc1nn([C@](C)(C(N)=O)C(F)F)cc1Nc1ncc(C(F)(F)F)c(C2CC2)n1 [Compounds A-97]		30 to 60
CCNc1nc(Nc2cn([C@H]3CCc4ncsc43)nc2C)ncc1C(F)(F)F [Compounds D-86]	< 30	
CNc1nc(Nc2cn(C(C)COC(F)F)nc2C)ncc1C(F)(F)F [Compounds D-96]	< 30	
CCNc1nc(Nc2cn(C3Cc4nccn4C3)nc2C)ncc1C(F)(F)F [Compounds D-102]	< 30	
CNc1nc(Nc2cnn([C@@H]3CCn4cncc43)c2C)ncc1C(F)(F)F [Compounds D-121]	< 30	

SMILES	IC50 (Table D-4) [nM]	IC50 (Table A-2) [nM]
CCNc1nc(Nc2cn([C@H]3CCn4nccc43)nc2C)ncc1C(F)(F)F [Compounds D-122]	< 30	
COc1nc(Nc2cnn([C@H]3CCn4ccnc43)c2C)ncc1C(F)(F)F [Compounds D-142]	> 60	
CNc1nc(Nc2cn([C@H]3CCC(n4ccnn4)C3)nc2C)ncc1C(F)(F)F (stereo partly drawn) [Compounds D-143]	30 to 60	
CCNc1nc(Nc2cn([C@H]3Cc4nccn4C3)nc2C)ncc1C(F)(F)F [Compounds D-163]	< 30	
CNc1nc(Nc2cnn([C@H]3CCn4cncc43)c2C)ncc1C(F)(F)F [Compounds D-166]	< 30	
CCNc1nc(Nc2cnn([C@H]3CCc4c(C)noc43)c2C)ncc1C(F)(F)F [Compounds D-171]	< 30	
CNc1nc(Nc2cnn([C@@H]3CCc4c(C)noc43)c2C)ncc1C(F)(F)F [Compounds D-173]	> 60	
CNc1nc(Nc2cn(C3(C)CCn4ccnc43)nc2C)ncc1C(F)(F)F [Compounds D-188]	> 60	
CNc1nc(Nc2cn(C3(C)CCn4ccnc43)nc2C)ncc1C(F)(F)F [Compounds D-189]	< 30	
CNc1nc(Nc2cnn([C@](C)(C#N)CF)c2C)ncc1C(F)(F)F [Compounds D-190]	< 30	
CNc1nc(Nc2cnn([C@@](C)(C#N)CF)c2C)ncc1C(F)(F)F [Compounds D-191]	< 30	
CNc1nc(Nc2cnn([C@](C)(C#N)C(F)F)c2C)ncc1C(F)(F)F [Compounds D-199]	< 30	
CNc1nc(Nc2cnn([C@@](C)(C#N)C(F)F)c2C)ncc1C(F)(F)F [Compounds D-200]	< 30	
Cc1c(Nc2ncc(C(F)(F)F)c(NC3CC3)n2)cnn1[C@](C)(C#N)CF [Compounds D-201]	< 30	
Cc1c(Nc2ncc(C(F)(F)F)c(NC3CC3)n2)cnn1C(C)(C#N)CF [Compounds D-202]	< 30	
CCNc1nc(Nc2cnn([C@@]3(C)CCn4ccnc43)c2C)ncc1C(F)(F)F [Compounds D-205]	> 60	
CCNc1nc(Nc2cnn([C@]3(C)CCn4ccnc43)c2C)ncc1C(F)(F)F [Compounds D-206]	< 30	

Next, values leading:

IC50 (Table D-4) [nM]	IC50 (Table A-2) [nM]	SMILES
< 30		CCNc1nc(Nc2cnn([C@H]3C[C@@H](N4CCN(C)CC4)C3)c2C)ncc1C(F)(F)F [Compound D-194]
< 30		CCNc1nc(Nc2cnn([C@H]3C[C@H](N4CC[C@H](F)C4)C3)c2C)ncc1C(F)(F)F [Compound D-195]
< 30		CCNc1nc(Nc2cnn([C@H]3C[C@@H](N4CC[C@H](F)C4)C3)c2C)ncc1C(F)(F)F [Compound D-196]
< 30		CCNc1nc(Nc2cnn([C@H]3C[C@H](N4CC[C@@H](F)C4)C3)c2C)ncc1C(F)(F)F [Compound D-197]
< 30		CCNc1nc(Nc2cnn([C@H]3C[C@@H](N4CC[C@@H](F)C4)C3)c2C)ncc1C(F)(F)F [Compound D-198]
< 30		CNc1nc(Nc2cnn(C3CCC(n4nccn4)C3)c2C)ncc1C(F)(F)F [Compounds D-107]
< 30		CNc1nc(Nc2cnn([C@@H]3CCC(n4nccn4)C3)c2C)ncc1C(F)(F)F (stereo partly drawn) [Compounds D-133]
< 30		CNc1nc(Nc2cnn([C@H]3CCC(n4nccn4)C3)c2C)ncc1C(F)(F)F (stereo partly drawn) [Compounds D-134]
< 30		CNc1nc(Nc2cnn([C@@H]3CCC(n4nccn4)C3)c2C)ncc1C(F)(F)F (stereo partly drawn) [Compounds D-141]
30 to 60		CNc1nc(Nc2cnn([C@H]3CCC(n4nccn4)C3)c2C)ncc1C(F)(F)F (stereo partly drawn) [Compounds D-149]
< 30		CCNc1nc(Nc2cnn([C@H]3CCCn4ccnc43)c2C)ncc1C(F)(F)F [Compounds D-151]
< 30		CCNc1nc(Nc2cnn([C@@H]3CCn4ccnc43)c2C)ncc1C(F)(F)F [Compounds D-152]
< 30		CNc1nc(Nc2cnn([C@H]3CCC(n4nccn4)C3)c2C)ncc1C(F)(F)F (stereo partly drawn) [Compounds D-156]
< 30		CCNc1nc(Nc2cnn([C@H]3CCCn4ccnc43)c2C)ncc1C(F)(F)F [Compounds D-170]
< 30		CCNc1nc(Nc2cnn([C@H]3CCn4ccnc43)c2C)ncc1C(F)(F)F [Compounds D-172]
< 30		CNc1nc(Nc2cnn([C@H]3CCC(n4ccnn4)C3)c2C)ncc1C(F)(F)F (stereo partly drawn) [Compounds D-175]
